The source of these data is patent publication US10358431B1, “Antimicrobials from an epigenetics based fungal metabolite screening program” (University of South Florida, priority 2015, dated 2019).

Data set [1] concerns Leishmania donovani. As to the kind of experiment: Infected macrophage model of the Leishmania donovani parasite. The class given is cell-based. Particulars: for IC50: read-out: L. donovani IC50.
Data set [2] concerns macrophages.
For data set [3], the system named is MRSA. Nature of the data set: Pure compound activity against MRSA (ESKAPE pathogens). Format: cell-based, Staphylococcus aureus. The note with it: for IC50: pure compound.
For data set [4], the system named is MRSA. Nature of the data set: MRSA drug wash-out study / MBC99. Format: cell-based, Staphylococcus aureus.

For the substance LL-Z1272ε [Compound 6], in data set [1], the “L. donovani IC50 (μM)” value is “neither phomopsichromin D (4) nor LL-Z1272ε (6) showed any activity”. In addition, the “activity towards the macrophages” value in data set [2] is “neither phomopsichromin D (4) nor LL-Z1272ε (6) showed any activity”.

Regarding Phomopsichromin A [Compound 1], the values for the IC50 in data set [3] and in data set [1] were 518 µM and 3 µM, respectively.

With Phomopsichromin B [Compound 2], the results for the IC50 in data set [3] and in data set [1] were 515 µM and 1.9 µM, respectively.

On to Phomopsichromin C [Compound 3], for which, in data set [3], the “MIC against MRSA” value was found to be 58 µM and the concentration for half-maximal inhibition (IC50) was 58 µM. For the same substance, in data set [1], the IC50 turned out to be 0.67 µM. Moreover, the “drug wash-out study: bactericidal or not” value in data set [4] is given as “bactericidal”.

With Phomopsichromin D [Compound 4], the “L. donovani IC50 (μM)” value in data set [1] is “neither phomopsichromin D (4) nor LL-Z1272ε (6) showed any activity”. Besides, the “activity towards the macrophages” value in data set [2] is reported as “neither phomopsichromin D (4) nor LL-Z1272ε (6) showed any activity”.

Regarding Phomopsichromin E [Compound 5], the IC50 in data set [3] stood at 515 µM; in data set [1] it was 0.8 µM.

Take gentamicin [reference compound]: the “MRSA MBC99” value in data set [4] was 20 µM.
